Assay results: US7750184B2, “Vitamin D receptor modulators” (Eli Lilly and Company, priority 2003, dated 2010)
Where two headings read alike, the source gives them in different places.

Columns and labels:
[1] = system: IL-10 production in PBMCs; experiment: IL-10 induction assay; format: cell-based; details: PBMC; TPA/PHA stimulated human PBMCs, IL-10 immunoassay
Description: 6. The IL-10 induction Assay
This is an in vitro efficacy assay for psoriasis, abscess and adhesion. Psoriasis involves both keratinocytes and immune cells. IL-10 is a unique cytokine because it is anti-inflammatory and immunosuppressive. This assay tells us whether a VDRM is able to function as an agonist in PBMCs (primary blood mononuclear cells) or not. A lower EC50 value is desirable in this assay since a compound with a lower EC50 value will be a better agonist in PBMCs.
(6) Materials and Method for Human IL-10 Induction Assay:
Isolation of Peripheral Blood Mononuclear Cells (PBMCs):
• A. Collect 50 ml of human blood and dilute with media, RPMI-1640. • B. Prepare sterile tubes with ficol. • C. Add diluted blood to tubes. • D. Centrifuge. • E. Discard the top layer and collect the cells from middle layer. • F. Divide all cells into four tubes and add media. • G. Centrifuge. • H. Aspirate off media and resuspend. • I. Collect all cells • J. Centrifuge. at 1200 rpm for 10 minutes. • K. Resuspend in RPMI-1640 with 2% FBS and count cells • Stimulation of PBMC: • L. Prepare TPA in DMSO. • M. Dissolve PHA in water. • N. Plate TPA/PHA treated PBMCs in well plates. • O. Incubate.
Treatment: • P. Prepare all compound dilutions in plain RPMI-1640 media. • Q. Add diluted compound. • R. Incubate. […]

VDR = target: T1, VDR (Homo sapiens, UniProt P11473); experiment: Caco-2 cell co-transfection assay (VDR CTF); format: cell-based; details: Caco-2 cells, pGal4-VDR-LBD co-transfection, luciferase reporter
T1 construct: the receptor expression vector pGal4-VDR-LBD (10 ng); expressed in transfected cells; host or cells: Caco-2 cells
T1 sequence (P11473 127-423 limits assumed): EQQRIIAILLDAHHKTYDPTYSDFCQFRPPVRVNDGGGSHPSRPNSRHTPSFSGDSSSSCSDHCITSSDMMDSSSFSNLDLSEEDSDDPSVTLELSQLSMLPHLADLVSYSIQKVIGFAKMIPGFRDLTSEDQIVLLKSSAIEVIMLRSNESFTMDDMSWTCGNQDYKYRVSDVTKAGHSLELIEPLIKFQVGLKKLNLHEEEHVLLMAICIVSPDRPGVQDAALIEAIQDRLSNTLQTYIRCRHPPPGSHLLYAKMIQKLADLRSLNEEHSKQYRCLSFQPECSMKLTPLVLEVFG
Description: 2. The Caco-2 Cell Co-Transfection Assay:
The Caco-2 cell assay is an indicator for the undesirable condition of hypercalcemia. This co-transfection assay is a surrogate assay for in vivo calcemic activity of VDR ligands. […] Preferred assay results are greater than 1000 nM.
(2) Materials and Method for The Caco-2 Cell Assay:
Caco-2 cells, grown in phenol red free, DMEM (Invitrogen, Carlsbad, Calif.) containing 10% charcoal-stripped FCS (Hyclone, Logan, Utah), were transfected with Fugene 6 reagent (Roche Diagnostics, Indianapolis, Ind.). Cells (5000/well) were plated 18 h before transfection in a 96 well plate. The Cells were transfected with Gal4-responsive reporter pFRLuc (150 ng, Stratagene, La Jolla Calif.) and the receptor expression vector pGal4-VDR-LBD (10 ng), along with Fugene 6 reagent (0.2 μl/well). The DNA-Fugene complex was formed by incubating the mixture for 30 min at room temperature. The cells were transfected in triplicate for 5 h, and treated with various concentrations of VDR ligands (form 0.01 nM to 10,000 nM concentration range) 18 h post-transfection. The luciferase activity was quantified using Steady-Glo reagent kit (Promega, Madison, Wis.) as per manufacturer's specifications.

RXR-VDR heterodimer = target: T2, RXR-VDR heterodimer (Homo sapiens, UniProt P11473); experiment: RXR-VDR heterodimerization assay (SaOS-2 cells); format: cell-based; details: Gal4-RXR-DEF / VP16-VDR-LBD, luciferase reporter
T2 construct: Add the Gal4-RXR-DEF and VP16-VDR-LBD; expressed in transfected cells; host or cells: SaOS-2 cells
T2 sequence (P11473 127-423 limits assumed): T1 sequence (P11473 127-423 limits assumed)
T2 sequence (P19793 201-462 partner limits assumed): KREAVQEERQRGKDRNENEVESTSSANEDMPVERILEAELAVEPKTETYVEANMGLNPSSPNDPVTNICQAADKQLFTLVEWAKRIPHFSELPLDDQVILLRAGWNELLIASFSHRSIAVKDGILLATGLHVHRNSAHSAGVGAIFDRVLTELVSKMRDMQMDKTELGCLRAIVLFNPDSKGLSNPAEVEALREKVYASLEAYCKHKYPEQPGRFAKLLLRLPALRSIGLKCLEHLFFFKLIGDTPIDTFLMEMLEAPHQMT
Description: 1. The RXR-VDR heterodimer Assay:
This assay provides the VDR activity of a test compound.
(1) Materials and Method for RXR-VDR Heterodimerization Assay:
Luciferase Assay Reagent: • Use Steady-Glo Luciferase Reagent from Promega (Cat # E2550) Consists of:
Add plain DMEM media to tubes for mixing the DNA
Add the Reporter gene pFR-LUC
Add the Gal4-RXR-DEF and VP16-VDR-LBD
Make a stock solution of the compounds in DMSO
Further dilute in D-MEM (Low Glucose—With out Phenol Red)
Read the plates after drug treatment
Add Steady-Glo Luciferase Reagent mixture/wells
Count each well using a Luminescence counter, Top Count NXT by Packard

KERtr cells = experiment: Keratinocyte proliferation assay; format: cell-based; details: Homo sapiens, 72 hr, BrdU incorporation, read-out: Kera. Prolif. IC50
Description: 5. The Keratinocte Proliferation Assay
This Assay is indicative for the treatment of psoriasis.
(5) The Keratinocyte Proliferation Assay:
KERtr cells (Human skin keratinocyte transformed with a retrovirus vector, obtained from ATCC) were plated in 96-well flat-bottomed plates (3000 cells/well) in 100 µl keratinocyte serum free medium supplemented with bovine pituitary extract in the absence of EGF (Life Technologies, Rockville, Md.) and incubated at 37° C. for two days. The cells were treated with various concentrations of VDR ligands (ten-fold serial dilution from 10,000 nM to 0.1 nM in triplicate), dissolved in 100 μl keratinocyte serum free medium supplemented with bovine pituitary extract in the absence of EGF and incubated at 37° C. for 72 hr. BrdU (5-bromo-2′-deoxyuridine) incorporation was analyzed as a measure of DNA replication (Cell proliferation ELISA kit, Roche Diagnostics, Indianapolis, Ind.) and absorbance was measured at 405 nm. Potency values (IC50) values were determined as the concentration (nM) of compound that elicited a half-maximal response.

rat osteocalcin promoter = experiment: OCN (osteocalcin) promoter assay; format: cell-based; details: RG-15 (ROS 17/2.8) cells, 48 hr treatment, luciferase reporter
Description: 3. The OCN (osteocalcin) Promoter Assay
The OCN Promoter Assay is an indicator and marker for osteoporosis. […] Preferred assay results are less than 50 nM.
(3) Materials and Method for the OCN Promoter Assay:
The activation of osteocalcin by VDR ligands was evaluated in a rat osteoblast-like cell line RG-15 (ROS 17/2.8) stably expressing rat osteocalcin promoter fused with luciferase reporter gene. […] Confluent RG-15 cells maintained in DMEM/F-12 medium (3:1) containing 5% FBS, 300 μg/ml G418 and at 37° C. under 5% CO2/95% air atmosphere were trypsinized (0.25% trypsin) and plated into white opaque 96-well cell culture plates (25000 cells/well). After 24 hr, cells (in DMEM/F-12 medium+2% FBS) were treated with various concentrations of compounds, dissolved in DMSO. The final DMSO concentration remained at 0.01% (v/v). After 48 hr treatment, the medium was removed, cells were lysed with 50 μl of lysis buffer (From Luciferase reporter assay system, Roche Diagnostics, Indianapolis, Ind.) and assayed for luciferase activity using the Luciferase Reporter Gene Assay kit from Boehringer Mannheim as per manufacturer's specifications.

[2] = in vivo, po
Description: (§1) The Mouse Hypercalcemia Assay is a six day hypercalcemia test for toxicity and selectivity. Acceptable test results are levels greater than 300 μg/kg/day. Preferred assay results are levels greater than 1000 μg/day.
(§2) (4) Materials and Method for the Mouse Hypercalcemia Assay:
(§3) Weanling, virus—antibody-free, five to six weeks old female DBF mice (Harlan, Indianapolis, Ind.) are used for all the studies. Animals are allowed to acclimate to local vivarium conditions for 2 days. […] The animals then are divided into groups with 4-5 mice per group. Different doses of test compounds prepared in 10% Ethanol and 90% sesame oil are administered to mice orally via gavage for 6 days. 1α-25(OH)2D3 0.5 μg/kg/d was also given to one group of mice as the positive control. […] Raw data of group differences is assessed by analysis of variance (ANOVA) using Fisher's protected least significant difference (PLSD) where the significance level was P<0.05.

[3] = Mouse hypercalcemia assay; details: oral gavage for 6 days, serum ionized calcium 6 hours after last dosing
Description: as §1, §2, §3

| Mouse Hypercal [2] [µg/kg/day] | SMILES | IC50 [1] [µM] | EC50 (VDR) [nM] | EC50 (RXR-VDR heterodimer) [µM] | IC50 (KERtr cells) [µM] | EC50 (rat osteocalcin promoter) [µM] | Mouse Hypercal [3] [µg/kg/day] | EC50 (rat osteocalcin promoter; Rattus norvegicus, 48 h) [µM] |
| --- | --- | --- | --- | --- | --- | --- | --- | --- |
| – | CCC(CC)(c1ccc(OS(C)(=O)=O)cc1)c1ccc(OCC(O)C(C)(C)C)c(Cl)c1 (single isomer, unassigned) [Ex. 45, 51B, 3′-[3-chloro-4-(2-hydroxy-3,3-dimethylbutoxy)phenyl]-3′-(4-methylsulfonyloxyphenyl)pentane] | 0.0395 | 353 | 0.024 | 0.027 | 0.013 | – | – |
| 0.06 | C=C1/C(=C\C=C2/CCC[C@]3(C)[C@@H]([C@H](C)CCCC(C)(C)O)CC[C@@H]23)C[C@@H](O)C[C@@H]1O [AA, 1α,25-dihydroxyvitamin D3] | – | – | – | – | – | – | – |
| – | CCC(CC)(c1ccc(OCC(=O)C(C)(C)C)c(C)c1)c1ccc(N(C)S(C)(=O)=O)c(C)c1 [Ex. 18, N-(4-{1-[4-(3,3-Dimethyl-2-oxo-butoxy)-3-methyl-phenyl]-1-ethyl-propyl}-2-methyl-phenyl)-N-methyl-methanesulfonamide] | – | 485 | 0.0696 | 0.032 | – | 1500 | 0.00762 |
| – | CCCS(=O)(=O)N(c1ccc(C(CC)(CC)c2ccc(OCC(=O)C(C)(C)C)c(C)c2)cc1C)S(=O)(=O)CCC [Ex. 25, N-(4-{1-[4-(3,3-Dimethyl-2-oxo-butoxy)-3-methyl-phenyl]-1-ethyl-propyl}-2-methyl-phenyl)-N,N-bis-1-propanesulfonamide] | – | 1290 | 0.0473 | 0.0146 | – | – | 0.0343 |
| – | CCCS(=O)(=O)Nc1ccc(C(CC)(CC)c2ccc(OCC(=O)C(C)(C)C)c(C)c2)cc1C [Ex. 26, N-(4-{1-[4-(3,3-Dimethyl-2-oxo-butoxy)-3-methyl-phenyl]-1-ethyl-propyl}-2-methyl-phenyl)-1-propanesulfonamide] | – | 333 | 0.0057 | 0.0044 | – | <1000 | 0.00369 |
| – | CCC(CC)(c1ccc(OCC(=O)C(C)(C)C)cc1)c1ccc(OS(C)(=O)=O)c(C)c1 [Ex. 36, 3′-[4-(2-oxo-3,3-dimethylbutoxy)-phenyl]-3′-[4-methylsulfonyloxy-3-methylphenyl]pentane] | – | 592 | 0.0152 | 0.036 | – | >3000 | 0.0455 |
| – | CCC(CC)(c1ccc(OS(C)(=O)=O)cc1)c1ccc(OCC(=O)C(C)(C)C)c(Cl)c1 [Ex. 42, 3′-[3-chloro-4-(2-oxo-3,3-dimethylbutoxy)phenyl]-3′-[4-(methylsulfonyloxy)phenyl]pentane] | – | 728 | 0.495 | 0.009 | – | <1000 | 0.0251 |
| – | CCC(CC)(c1ccc(OS(=O)(=O)C(F)(F)F)cc1)c1ccc(OCC(O)C(C)(C)C)c(Cl)c1 (stereo not shown) [Ex. 47, 53, 3′-[3-chloro-4-(2-hydroxy-3.3-dimethylbutoxy)phenyl]-3′-(4-trifluoromethylsulfonyloxyphenyl)pentane] | – | 431 | 0.0125 | 0.3 | – | – | 0.0925 |
